± gives the expanded uncertainty stated by the source.
Assay: molar heat capacity at constant pressure; xn = mol fraction of the nth substance listed
Conditions: 101 kPa, Liquid, Small sample (50 mg) DSC

CC(O)CN (stereo unspecified) [1-amino-2-propanol] + O
Conditions	molar heat capacity at constant pressure [J/K/mol]
207.73 K, x1 = 0.68	127.89 ± 26
209.98 K, x1 = 0.19	80.53 ± 3.5
209.98 K, x1 = 0.26	88.72 ± 3.6
210.13 K, x1 = 0.68	136.98 ± 5.7
210.14 K, x1 = 0.16	76.29 ± 3.3
212.31 K, x1 = 0.16	80.64 ± 16
212.31 K, x1 = 0.19	81.68 ± 16
212.31 K, x1 = 0.26	87.41 ± 17
212.33 K, x1 = 0.15	76.55 ± 15
212.46 K, x1 = 0.68	129.03 ± 26
213.3 K, x1 = 0.19	80.82 ± 3.5
213.3 K, x1 = 0.26	89.38 ± 3.9
213.45 K, x1 = 0.16	76.84 ± 3.3
213.45 K, x1 = 0.68	137.55 ± 5.7
217.04 K, x1 = 0.19	82.55 ± 16
217.04 K, x1 = 0.26	88.06 ± 18
217.05 K, x1 = 0.16	81.72 ± 16
217.07 K, x1 = 0.15	77.88 ± 16
217.19 K, x1 = 0.68	129.59 ± 26
219.93 K, x1 = 0.19	82.26 ± 3.5
219.93 K, x1 = 0.26	90.36 ± 3.9
220.08 K, x1 = 0.68	136.98 ± 5.7
220.09 K, x1 = 0.16	76.56 ± 3.3
221.78 K, x1 = 0.19	83.7 ± 17
221.79 K, x1 = 0.16	83.08 ± 17
221.79 K, x1 = 0.26	89.71 ± 18
221.81 K, x1 = 0.15	79.21 ± 16
221.94 K, x1 = 0.68	130.73 ± 26
223.25 K, x1 = 0.19	82.84 ± 3.5
223.25 K, x1 = 0.26	91.35 ± 3.9
226.53 K, x1 = 0.16	84.44 ± 17
226.53 K, x1 = 0.19	84.86 ± 17
226.53 K, x1 = 0.26	91.02 ± 18
226.55 K, x1 = 0.15	80.8 ± 16
226.68 K, x1 = 0.68	132.44 ± 27
229.89 K, x1 = 0.26	92.99 ± 3.9
231.26 K, x1 = 0.19	86.01 ± 17
231.26 K, x1 = 0.26	92.34 ± 18
231.27 K, x1 = 0.16	85.52 ± 17
231.3 K, x1 = 0.15	82.4 ± 16
231.42 K, x1 = 0.68	133.57 ± 27
233.2 K, x1 = 0.26	94.31 ± 3.9
236.01 K, x1 = 0.16	86.88 ± 17
236.01 K, x1 = 0.19	87.46 ± 18
236.01 K, x1 = 0.26	93.65 ± 19
236.04 K, x1 = 0.15	83.99 ± 17
236.16 K, x1 = 0.68	135.28 ± 27
239.85 K, x1 = 0.26	96.28 ± 3.9
240.75 K, x1 = 0.16	88.51 ± 18
240.75 K, x1 = 0.19	88.61 ± 18
240.75 K, x1 = 0.26	94.96 ± 19
240.78 K, x1 = 0.15	85.59 ± 17
240.9 K, x1 = 0.68	136.98 ± 27
243.17 K, x1 = 0.26	97.59 ± 4.3
245.5 K, x1 = 0.16	89.6 ± 18
245.5 K, x1 = 0.19	90.05 ± 18
245.5 K, x1 = 0.26	96.61 ± 19
245.53 K, x1 = 0.15	87.18 ± 18
245.64 K, x1 = 0.68	138.69 ± 28
249.82 K, x1 = 0.26	99.89 ± 4.3
250.25 K, x1 = 0.16	90.95 ± 18
250.25 K, x1 = 0.19	91.5 ± 18
250.25 K, x1 = 0.26	97.92 ± 20
250.28 K, x1 = 0.15	88.51 ± 18
250.4 K, x1 = 0.68	140.39 ± 28
253.15 K, x1 = 0.26	101.21 ± 4.3
255 K, x1 = 0.16	91.77 ± 18
255 K, x1 = 0.19	92.36 ± 18
255 K, x1 = 0.26	99.24 ± 20
255.03 K, x1 = 0.15	89.84 ± 18
255.14 K, x1 = 0.68	142.67 ± 28
259.75 K, x1 = 0.16	92.85 ± 19
259.75 K, x1 = 0.19	93.81 ± 19
259.75 K, x1 = 0.26	100.55 ± 20
259.78 K, x1 = 0.15	90.9 ± 18
259.8 K, x1 = 0.19	95.54 ± 4
259.8 K, x1 = 0.26	103.51 ± 4.3
259.89 K, x1 = 0.68	144.37 ± 29
259.95 K, x1 = 0.16	93.4 ± 4.1
259.95 K, x1 = 0.68	154.04 ± 6.8
259.96 K, x1 = 0.15	93.83 ± 4
263.13 K, x1 = 0.19	96.69 ± 4
263.13 K, x1 = 0.26	104.82 ± 4.6
263.27 K, x1 = 0.68	155.17 ± 6.8
263.28 K, x1 = 0.16	94.48 ± 4.1
263.29 K, x1 = 0.15	94.62 ± 4
264.5 K, x1 = 0.16	93.94 ± 19
264.5 K, x1 = 0.19	94.96 ± 19
264.5 K, x1 = 0.26	101.87 ± 20
264.53 K, x1 = 0.15	92.23 ± 19
264.64 K, x1 = 0.68	146.65 ± 30
269.26 K, x1 = 0.16	94.48 ± 19
269.26 K, x1 = 0.19	95.83 ± 19
269.26 K, x1 = 0.26	103.18 ± 21
269.29 K, x1 = 0.15	93.29 ± 19
269.4 K, x1 = 0.68	148.35 ± 30
269.78 K, x1 = 0.19	98.71 ± 4.3
269.79 K, x1 = 0.26	107.45 ± 4.6
269.93 K, x1 = 0.68	158.01 ± 6.8
269.94 K, x1 = 0.16	96.66 ± 4.1
269.95 K, x1 = 0.15	96.75 ± 4.3
273.12 K, x1 = 0.19	99.87 ± 4.3
273.13 K, x1 = 0.26	108.44 ± 4.6
273.27 K, x1 = 0.68	159.15 ± 6.8
273.29 K, x1 = 0.15	97.28 ± 4.3
273.29 K, x1 = 0.16	97.74 ± 4.1
274.05 K, x1 = 0.16	95.3 ± 19
274.05 K, x1 = 0.19	96.98 ± 19
274.05 K, x1 = 0.26	104.49 ± 21
274.09 K, x1 = 0.15	93.83 ± 19
274.2 K, x1 = 0.68	150.62 ± 30
278.96 K, x1 = 0.26	105.81 ± 21
278.97 K, x1 = 0.16	96.11 ± 19
278.97 K, x1 = 0.19	98.13 ± 20
279 K, x1 = 0.15	94.89 ± 19
279.12 K, x1 = 0.68	152.9 ± 31
280 K, x1 = 0.19	101.02 ± 4.3
280.01 K, x1 = 0.26	109.42 ± 4.6
280.15 K, x1 = 0.68	160.29 ± 6.8
280.17 K, x1 = 0.15	97.81 ± 4.3
280.17 K, x1 = 0.16	98.83 ± 4.1
283.44 K, x1 = 0.19	101.31 ± 4.3
283.44 K, x1 = 0.26	110.08 ± 4.6
283.59 K, x1 = 0.68	160.86 ± 6.8
283.61 K, x1 = 0.16	99.37 ± 4.3
283.62 K, x1 = 0.15	98.08 ± 4.3
283.88 K, x1 = 0.16	96.38 ± 19
283.88 K, x1 = 0.19	97.85 ± 20
283.88 K, x1 = 0.26	106.79 ± 21
283.92 K, x1 = 0.15	95.42 ± 19
284.02 K, x1 = 0.68	155.17 ± 31

Source: the NIST ThermoML archive (doi:10.1016/j.tca.2015.02.020)
